Measured values: patent publication US20090305244A1, “Selection, Propagation and Use of Mosaic Aneuploid Stem Cells” (The Scripps Research Institute, priority 2005, published 2009)
Entries after “also recorded” stand apart in the source; their conditions may differ.

Legend:
Mouse ESC [1] = experiment: Neuronal differentiation of ESCs co-cultured with PA6 cells (tuj1 staining); type: cell-based; settings: taxol 2.5 nM versus without taxol; PA6 co-culture 1 week; FIG. 4
Source text: (§1) A key attribute of HESCs is their ultimate ability to differentiate into normal, mature cells. There is ample evidence that the differentiation of ES cells can be manipulated to give rise to enriched populations of neuronal cells. Stromal PA6 cells, when used as feeders, promote neural differentiation by inducing mouse ES colonies to become Tuj-1-positive and with robust neuritogenesis (Kawasaki et al., 2000). To examine the differentiation potential of anueploid vs. euploid cells, mammalian ESCs were treated with (aneuploid) or without (euploid) taxol and were examined for their ability to differentiate into neurons when cocultured with PA6 cells. Following 1 week of differentiation, 55% of taxol treated cells had gained chromosomes (FIG. 3).
(§2) Mouse ESC were co-cultured with PA6 cells (Kawasaki et al., 2002) for 1 week under differentiation conditions (DMEM/F12 Glutamax (Gibco, Carlsbad, Calif.), 10% “KNOCKOUT” serum replacement (Gibco), 0.1 mM non-essential aminoacids (Gibco) and 0.1 mM β-mercaptoethanol (Gibco). Cells were treated with taxol (Sigma) at a concentration of 2.5 nM.
Immunofluorescence staining was performed as previously described (Gage et al., 1995), using α-β-tubulin-III (Tuj-1; 1/1000, Covance). Secondary antibodies were purchased from Jackson ImmunoResearch.

Mouse ESC [2] = experiment: Chromosome counts of ESCs treated with taxol during PA6 co-culture differentiation; type: cell-based; settings: FIG. 3
Source text: as §1, §2
HESC Chromosome spreads were obtained by standard protocols (Barch et al., 1997; Rehen et al., 2001). […]
For each sample, 40 metaphase spreads were captured and analyzed by SKY and 70 metaphase spreads counterstained with DAPI were captured for aneuploidy quantification.

**Q.** For `CC(=O)O[C@H]1C(=O)[C@@]2(C)[C@H]([C@H](OC(=O)c3ccccc3)[C@]3(O)C[C@H](OC(=O)[C@H](O)[C@@H](NC(=O)c4ccccc4)c4ccccc4)C(C)=C1C3(C)C)[C@]1(OC(C)=O)CO[C@@H]1C[C@@H]2O` [taxol], which “number of neuronally differentiated colonies (tuj1 staining) / neuronal differentiation potential” value (Mouse ESC [1]) is on record?
**A.** Its value is “significantly reduces neuronal differentiation potential; also recorded: significant decrease”.

**Q.** What about the “induction of aneuploidy (chromosome counts)” value (Mouse ESC [2]; ESCs on PA6 cells treated with taxol for 6 days) of the same molecule?
**A.** Its value is “induces aneuploidy, specifically hyperploidy”.

**Q.** And the “taxol treated cells that had gained chromosomes” value (Mouse ESC [2]; taxol 2.5 nM, following 1 week of differentiation on PA6 cells)?
**A.** Its value is 55%.
